Laboratory results as given in patent publication US20220354815A1, “OKN-007 AS A THERAPEUTIC AGENT” (Oklahoma Medical Research Foundation, priority 2019, published 2022).

Assays:
[1] = tested on: orthotopic GBM xenografts; conditions: cited from earlier work
[2] = tested on: Sodl G93A mutant mice; experiment: MRI (diffusion, perfusion) and MR spectroscopy of spinal cord in G93A mice; assay type: in vivo, mouse
Method: (§1) ALS is a debilitating disease that according to the ALS Association affects two per 100,000 people in the USA. There is no cure and the average survival time after diagnosis is three years. In this study, the inventors investigated the impact of treatment with […], an antioxidant, on ALS progression. Female Sodl G93A mutant mice, an established mouse model of ALS, and wildtype (wt) mice were treated with OKN-077 for three months starting at the age of 60 days, before the mice became symptomatic, and compared to age matched untreated controls (both transgenic and wt). Disease progression measured by monitoring disease score on a scale of 1-5 (based on hind limb paralysis and dysfunction) was delayed in the treated mice. All treated mice were at stage 2 at the time of sacrifice at 145 days (end stage disease is ˜160 days), while untreated transgenic controls had progressed to stage ≥2. […] The untreated transgenic control mice had on average 10.7 ±2.1 alpha motor neurons per ventral horn, while the treated transgenic mice had 17.5 ±4.5 alpha motor neurons (a 64% increase). […] These findings indicate that OKN-077 may potentially be considered as a possible therapeutic agent for ALS, and certainly warrants further investigation.

[3] = tested on: TGF-β1; experiment: TGF-β1 pathway expression; conditions: gene not directly down-regulated; stated without data
[4] = tested on: CD44v6; experiment: CD44v6 biomarker regulation; conditions: biomarker directly associated with metastasis; stated without data
[5] = tested on: CS99 cells; experiment: Endometrial cancer in vivo, CS99 cells i.p. in athymic nude mice (survival, MRI tumor volume); design: species or system mouse
Method: CS99 cells were obtained from K. Moxley (OUHSC). 10^6 cells were injected i.p. into Athymic Nude Foxnlnu mice (Envigo) mice. Gd-DTPA (MRI contrast agent; administered i.v. via a tail-vein-catheter) was used to detect tumors. OKN-077 was administered 150 mg/kg daily in drinking water.

[6] = tested on: Sodl G93A mutant mice; experiment: Spinal cord histology (NeuN motor neuron counts, microglia, astrocytes) in G93A mice; assay type: in vivo, mouse
Method: as §1

[7] = tested on: Sodl G93A mutant mice; experiment: ALS disease progression score in Sod1 G93A mutant mice; assay type: in vivo, mouse
Method: as §1

[8] = tested on: normal cells; experiment: Effects on normal cells; conditions: stated without data
[9] = Towner et al., Translational Oncology 2019
[10] = previous assessment by the inventors

Structure (SMILES): CC(C)(C)/[N+]([O-])=C/c1ccc(S(=O)(=O)[O-])cc1S(=O)(=O)[O-].[Na+].[Na+] [OKN-077, 2,4-Disulfonyl-N-Tert-Butylnitrone, 2,4-disulfonyl α-phenyl tertiary butyl nitrone]
- TMZ-Resistant Glioblastoma (GBM) tumor growth [1, 9]: suppresses
- Temozolomide (TMZ) sensitivity [1, 9]: increases
- Survival in orthotopic GBM xenografts [1, 10]: increasing
- Tumor volumes in orthotopic GBM xenografts [1, 10]: decreasing
- Myo-inositol (Myo-Ins)/creatine ratio by MRS ([2]; stated for ALS c (non-treated) vs ALS t (treated) mice, FIG. 6C): significant decrease
- Spinal cord metabolite myo-inositol ([2]; treated vs untreated): significantly elevated
- Apparent diffusion coefficient (ADC) in the lumbar region of the spinal cord ([2]; treated vs untreated, p<0.001): decreased
- Relative tissue blood flow in the spinal cord ([2]; treated vs untreated, p<0.01): significantly increase
- ADC in the surrounding muscle tissue ([2]; treated vs untreated, p<0.05): increased
- TGF-β1 protein expression [3]: decreased
- CD44v6 regulation [4]: downregulates
- Survival of tumor-bearing mice compared to untreated (UT) ([5]; 150 mg/kg daily in drinking water, FIG. 7): significant increase
- Tumor size on MR images at 21 days after CS99 cell implantations ([5]; compared to untreated tumors, FIG. 8): consistently small tumors
- Tumor volumes compared to UT mice ([5]; ~21 days after cell implantation, p<0.0001, FIG. 9): significantly decrease
- Motor neuron loss ([6]; NeuN stained ventral horn, treated vs untreated G93A p=0.0197): prevents
- Astrocyte activation ([6]; mouse, in vivo): didn't affect
- Alpha motor neurons per ventral horn ([6]; treated transgenic mice, untreated transgenic 10.7 ±2.1): 17.5 ±4.5
- Microglia activation ([6]; treated vs untreated G93A mice): decreases
- Ramified, non-activated microglia ([6]; treated vs untreated G93A mice, p=0.0026): significantly more
- Increase in alpha motor neurons versus untreated transgenic mice ([6]; treated vs untreated transgenic mice): 64%
- Astrocyte proliferation ([6]; treatment p=0.23, FIGS. 5B and 5C): doesn't affect
- Microglia proliferation (number of Ibal+ cells) ([6]; two-way ANOVA, treatment p=0.0244, FIG. 5A): treatment effect
- Delay in reaching the score of 2 versus untreated G93A mice ([7]; FIG. 2C): around 14 days
- Highest disease score reached ([7]; FIG. 2D, untreated G93A mice reached score 3 around 136 days of age): ≤ 2
- Disease progression (disease score based on hind limb paralysis and dysfunction) ([7]; female G93A mice treated three months from age 60 days, vs untreated transgenic controls): delayed
- Disease stage at the time of sacrifice ([7]; sacrifice at 145 days, scale of 1-5, all treated mice): 2
- Disease onset ([7]; treated vs untreated G93A mice (FIG. 2B)): doesn't delay
- Adverse effects on normal cells [8]: no adverse effects
